Data on two compounds can be found in patent US8182815B2, “Fibroblast growth factor receptor-3 (FGFR-3) inhibitors and methods of treatment” (ImClone, LLC, priority 2008, dated 2012).

Assay [1] addresses T1, FGFR-3 (K650E) in OPM-2 cells (Homo sapiens, UniProt P22607, K650E).
T1 construct: endogenous in cells; host or cells: OPM-2
The experiment in a line: FGFR-3 receptor degradation in OPM-2 cells (western blot). Particulars: 37° C., Antibody 1 30 ug/ml, FGF-1 30 ng/ml. It counts as cell-based. How it is done:
OPM-2 is a cell line originally isolated from cancer cells of multiple myeloma. OPM-2 cells are known to express FGFR-3 receptors harboring a gain-of-function K650E point mutation. Quiesce the OPM-2 cells in low serum culture media (0.1% FBS) for overnight. The next day, divide these cells into 5 groups. Group 1 is lysed immediately, and the lysate is kept at −20° C. until the time of western blot analysis. This group is therefore designated as Time 0 hr sample. Group 2-5 each has 3 samples of equal size, named as Sample A, B and C of Group 2, 3, 4, and 5. Samples A of Group 2-5 are not subjected to any further treatment, but are incubated at 37° C. Samples B of Group 2-5 are treated with 30 ng/ml FGF-1 at 37° C. […] All samples of Group 2 are lysed after 1 hr of treatment, and the lysates are kept at −20° C. until the time of western blot analysis. This group is designated as the Time 1 hr samples. All samples of Group 3 are lysed after 4 hr of treatment, and the lysates are kept at −20° C. until the time of western blot analysis. This group is designated as the Time 4 hr samples. All samples of Group 4 are lysed after 8 hr of treatment, and the lysates are kept at −20° C. until the time of western blot analysis. This group is designated as Time 8 hr samples. All samples of Group 5 are lysed after 24 hr of treatment, and the lysates are kept at −20° C. until the time of western blot analysis. This group is designated as Time 24 hr samples. When all lysates are ready, they are subjected to SDS-PAGE followed by Western Blot experiment. The FGFR-3 signals of Group 1 and all samples of Group 2 are similar. […] In Group 5, the FGFR-3 signal of Sample A is lower than that of group 1; yet signals of Samples B and C are nearly absent.

The test system of assay [2] is RT112 cells. The experiment in a line: RT112 cell proliferation assay (3H-thymidine incorporation). The assay is classed as cell-based, human. Particulars: 1 nM exogenous FGF-1, 48 hours. How it is done: Quiesce monolayer RT112 cells in low serum culture media (0.1% fetal bovine serum, 5 μg/mL heparin) for 24-72 hrs. Divide cells into 4 samples. Add FBS (Fetal Bovine Serum) to Sample 1 to the final concentration of 10% (V:V). Leave Sample 2 in the starving media. Add FGF-1 to Sample 3 to the final concentration of 1 nM. […] Next, add FGF-1 to the final concentration of 1 nM. After preparing Samples 1-4 as described above, incubate the samples in a tissue culture incubator set at 37° C. and with 5% CO2 (v:v) for 48 hours. Detect cell growth using standard ^3H-thymidine incorporation, assays. Tumor cell growth is doubled when RT112 cells […] are stimulated with 1 nM exogenous FGF-1.

The subject of assay [3] is RT4 tumor. Kind of assay: RT4 xenograft, combination with cisplatin. Particulars: Antibody 1 40 mg/kg three times weekly, cisplatin MTD.
Method: (§1) The therapeutic benefit of combining cisplatin with FGFR-3 antibody in three bladder xenograft models is explored. Develop RT112, RT4 and BFTC905 xenograft tumor models by routine methods in which 1-20 million tumor cells mixed with 0-100% Matrigel are injected subcutaneously to each female athymic nude mouse. Start antibody treatment once the mean volume of the subcutaneous tumors is approximately 400 mm^2. […] Measure tumor volumes 3 times weekly until the end of the studies.
Conduct RM ANOVO statistical test.
Assay [4] deals with RT-112 tumor. The experiment in a line: RT112 xenograft, combination with cisplatin. Particulars: Antibody 1 40 mg/kg three times weekly, cisplatin MTD.
Method: as §1
Conduct RM ANOVO statistical test.
For assay [5], the system named is BFTC-905 tumor. Kind of assay: BFTC905 xenograft, combination with cisplatin. Particulars: Antibody 1 40 mg/kg three times weekly, cisplatin MTD.
Method: as §1
Conduct RM ANOVO statistical test.

T1 sequence (P22607 23-806 K650E): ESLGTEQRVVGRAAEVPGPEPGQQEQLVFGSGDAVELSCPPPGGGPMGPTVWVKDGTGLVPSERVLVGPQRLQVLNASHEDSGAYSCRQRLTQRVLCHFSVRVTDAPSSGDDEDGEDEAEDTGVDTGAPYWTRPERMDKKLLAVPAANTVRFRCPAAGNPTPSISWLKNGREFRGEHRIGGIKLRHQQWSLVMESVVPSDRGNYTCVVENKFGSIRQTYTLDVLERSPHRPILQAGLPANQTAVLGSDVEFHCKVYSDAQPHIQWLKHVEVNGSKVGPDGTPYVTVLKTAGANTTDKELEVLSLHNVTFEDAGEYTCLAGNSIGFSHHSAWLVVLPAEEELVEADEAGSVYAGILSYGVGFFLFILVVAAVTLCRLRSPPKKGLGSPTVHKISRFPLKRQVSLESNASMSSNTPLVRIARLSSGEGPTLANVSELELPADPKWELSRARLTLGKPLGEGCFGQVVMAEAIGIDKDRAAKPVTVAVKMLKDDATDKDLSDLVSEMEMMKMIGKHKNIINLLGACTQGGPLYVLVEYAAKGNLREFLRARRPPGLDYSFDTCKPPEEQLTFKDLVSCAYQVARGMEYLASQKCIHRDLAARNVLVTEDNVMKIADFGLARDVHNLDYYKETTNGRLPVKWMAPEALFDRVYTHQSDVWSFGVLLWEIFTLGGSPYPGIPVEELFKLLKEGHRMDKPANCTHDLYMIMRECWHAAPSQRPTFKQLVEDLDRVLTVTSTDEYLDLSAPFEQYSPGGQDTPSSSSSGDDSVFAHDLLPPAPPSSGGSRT

For the compound “FGF-1: recombinant human FGF ligand, known to induce FGFR degradation”, the “FGFR-3 signal compared with Time 0 hr (Group 1)” value in assay [1] (Time 1 hr) is “similar”; in assay [1] (Time 4 hr) it was “significantly lower”; in assay [1] (Time 8 hr), “significantly lower”; in assay [1] (Time 24 hr), “nearly absent”. The “tumor cell growth on stimulation” value in assay [2] was “doubled”.
For the compound `N.N.[Cl][Pt][Cl]` [Cisplatin, cisplatin, reference compound], the “RT4 Tumor Volumes, Average” value in assay [3] (Day 1) was determined as 195.4 mm^3; in assay [3] (Day 8) it was 253.4 mm^3; in assay [3] (Day 15) it was 374.0 mm^3; in assay [3] (Day 22) it was 511.9 mm^3; in assay [3] (Day 29), 675.8 mm^3; in assay [3] (Day 36), 840.5 mm^3. The “RT4 Tumor Volumes, Average” value in assay [3] (Day 42) was determined as 1024.5 mm^3. Also, the “RT-112 Tumor Volumes, Average” value in assay [4] (Day 1) was determined as 175.7 mm^3; in assay [4] (Day 8), 245.1 mm^3; in assay [4] (Day 15) it was 360.8 mm^3; in assay [4] (Day 22), 578.8 mm^3; in assay [4] (Day 29) it was 739.4 mm^3; in assay [4] (Day 36), 881.6 mm^3. Besides, in assay [4] (Day 42), the “RT-112 Tumor Volumes, Average” value came out at 1115.9 mm^3. Also, the “BFTC-905 Tumor Volumes, Average” value in assay [5] (Day 0) is listed as 192.1 mm^3; in assay [5] (Day 3), 211.4 mm^3; in assay [5] (Day 7) it was 243.4 mm^3; in assay [5] (Day 14), 286.7 mm^3; in assay [5] (Day 21) it was 395.0 mm^3; in assay [5] (Day 28), 511.6 mm^3. Besides, the “BFTC-905 Tumor Volumes, Average” value in assay [5] (Day 35) turned out to be 615.5 mm^3; in assay [5] (Day 42), 829.6 mm^3.
